Experimental data as given in patent EP4740948A1 (Dong Wha Pharm. Co., Ltd., priority 2023, dated 2025).
Structures can show the parent of a compound that is named as a salt.

Assays:
[1] = target: EZH2 (Homo sapiens, UniProt Q15910); assay: AlphaLISA enzyme activity inhibition, EZH2; format: biochemical; conditions: for inhibition at 0.01 µM: 10nM test substance
Summary of the method: (§1)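 Enzyme inhibition rate was calculated relative to DMSO from AlphaLISA signal, with acceptor beads added after a 2 h methylation reaction and donor beads 1 h later. Each enzyme, EZH1 or EZH2, was pre-mixed with compound (final 5 nM or 10 nM) in Tris buffer pH 8.0 before histone H3 peptide and SAM initiated the reaction.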

[2] = system: MIA-PaCa-2 cells; assay: Cancer cell proliferation inhibition (Cell Counting Kit-8), pancreatic cancer cell line; format: cell-based; conditions: 1000 nM, cultured seven to 11 days; for inhibition at 1 µM: Homo sapiens, MIA PaCa-2, 264 h, read-out: % inhibition rate MIA-Paca2
Summary of the method: (§2)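 Single-concentration test: 1000 nM compound, 7-11 day culture after seeding 100 to 1,000 cells per well in 10% FBS medium. Percent inhibition derived from Cell Counting Kit-8 signal relative to untreated control.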

[3] = system: G401 cells; assay: Cancer cell proliferation inhibition (Cell Counting Kit-8), rhabdoid tumor cell line; format: cell-based; conditions: 1000 nM, cultured seven to 11 days; for inhibition at 1 µM: Homo sapiens, G-401, 264 h, read-out: % inhibition rate G401; for % inhibition rate G401: 1 µM
Summary of the method: (§3)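 Single 1000 nM dose of test substance, applied to cells seeded at 100–1,000 per well in 10% FBS medium, then culture for seven to 11 days. CCK-8 read-out; inhibition rate expressed as percent relative to untreated control.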

[4] = system: MKN-45 cells; assay: Cancer cell proliferation inhibition (Cell Counting Kit-8), gastric cancer cell line; format: cell-based; conditions: 1000 nM, cultured seven to 11 days; for inhibition at 1 µM: Homo sapiens, MKN-45, 264 h, read-out: % inhibition rate MKN -45
Summary of the method: as §3

[5] = target: EZH1 (Homo sapiens, UniProt Q92800); assay: AlphaLISA enzyme activity inhibition, EZH1; format: biochemical; conditions: for inhibition at 0.01 µM: 10nM test substance
Chain of EZH1 (Q92800 whole entry, species assumed): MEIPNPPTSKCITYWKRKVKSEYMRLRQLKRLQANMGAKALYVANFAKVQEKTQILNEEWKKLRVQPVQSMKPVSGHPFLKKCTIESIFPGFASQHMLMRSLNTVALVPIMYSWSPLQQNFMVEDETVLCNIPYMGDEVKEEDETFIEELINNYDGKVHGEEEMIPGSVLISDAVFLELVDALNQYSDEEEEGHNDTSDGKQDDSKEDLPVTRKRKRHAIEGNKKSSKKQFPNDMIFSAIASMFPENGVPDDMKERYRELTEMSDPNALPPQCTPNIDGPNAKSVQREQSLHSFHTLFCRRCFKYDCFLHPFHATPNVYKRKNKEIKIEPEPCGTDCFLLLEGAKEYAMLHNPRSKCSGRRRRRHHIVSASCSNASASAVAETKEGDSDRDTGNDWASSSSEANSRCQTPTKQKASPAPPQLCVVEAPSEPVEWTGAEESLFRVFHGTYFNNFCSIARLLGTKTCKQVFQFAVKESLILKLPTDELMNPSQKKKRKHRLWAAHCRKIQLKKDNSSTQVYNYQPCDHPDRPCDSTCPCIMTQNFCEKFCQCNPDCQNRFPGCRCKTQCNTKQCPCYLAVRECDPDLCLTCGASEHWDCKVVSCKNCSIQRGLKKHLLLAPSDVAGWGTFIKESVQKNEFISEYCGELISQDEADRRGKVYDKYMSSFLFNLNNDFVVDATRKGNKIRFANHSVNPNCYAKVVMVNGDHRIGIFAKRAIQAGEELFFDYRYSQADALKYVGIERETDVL
Chain of EZH1 (O75530 whole entry partner, species assumed): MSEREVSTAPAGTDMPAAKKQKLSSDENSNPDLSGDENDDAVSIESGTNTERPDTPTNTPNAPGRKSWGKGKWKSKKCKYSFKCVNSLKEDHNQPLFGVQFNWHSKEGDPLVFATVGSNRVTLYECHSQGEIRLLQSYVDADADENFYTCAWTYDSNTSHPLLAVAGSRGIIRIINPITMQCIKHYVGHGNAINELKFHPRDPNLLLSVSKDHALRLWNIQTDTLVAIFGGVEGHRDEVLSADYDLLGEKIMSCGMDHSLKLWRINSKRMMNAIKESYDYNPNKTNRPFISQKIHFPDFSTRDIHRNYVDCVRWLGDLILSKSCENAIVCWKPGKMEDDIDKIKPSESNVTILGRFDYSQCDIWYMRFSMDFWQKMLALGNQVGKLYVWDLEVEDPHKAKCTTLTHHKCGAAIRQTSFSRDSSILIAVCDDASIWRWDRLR
Chain of EZH1 (Q15022 whole entry partner, species assumed): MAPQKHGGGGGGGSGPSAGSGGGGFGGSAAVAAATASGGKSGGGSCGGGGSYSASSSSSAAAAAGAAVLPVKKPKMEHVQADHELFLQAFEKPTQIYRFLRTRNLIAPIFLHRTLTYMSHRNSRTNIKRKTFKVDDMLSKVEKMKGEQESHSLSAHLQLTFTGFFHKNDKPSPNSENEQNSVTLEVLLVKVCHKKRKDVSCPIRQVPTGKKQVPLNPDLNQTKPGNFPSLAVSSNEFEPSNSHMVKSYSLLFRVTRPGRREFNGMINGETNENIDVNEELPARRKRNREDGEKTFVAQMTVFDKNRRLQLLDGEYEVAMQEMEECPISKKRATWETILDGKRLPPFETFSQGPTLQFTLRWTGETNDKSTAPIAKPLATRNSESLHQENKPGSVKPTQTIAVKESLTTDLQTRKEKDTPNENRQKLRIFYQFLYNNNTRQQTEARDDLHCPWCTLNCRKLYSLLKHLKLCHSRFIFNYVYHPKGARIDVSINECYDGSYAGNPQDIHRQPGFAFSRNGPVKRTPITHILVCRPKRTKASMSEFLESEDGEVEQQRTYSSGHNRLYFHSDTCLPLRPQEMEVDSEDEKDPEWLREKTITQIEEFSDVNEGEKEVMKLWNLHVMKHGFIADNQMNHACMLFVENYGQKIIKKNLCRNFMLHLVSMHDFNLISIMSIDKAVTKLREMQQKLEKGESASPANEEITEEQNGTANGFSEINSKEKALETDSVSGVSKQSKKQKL
Summary of the method: as §1

[6] = system: Lovo cells; assay: Cancer cell proliferation inhibition (Cell Counting Kit-8), colorectal cancer cell line; format: cell-based; conditions: 1000 nM, cultured seven to 11 days; for inhibition at 1 µM: Homo sapiens, LoVo, 264 h, read-out: % inhibition rate LoVo
Summary of the method: as §2

[7] = system: SW-13 cells; assay: Cancer cell proliferation inhibition (Cell Counting Kit-8), adrenal cancer cell line; format: cell-based; conditions: 1000 nM, cultured seven to 11 days; for inhibition at 1 µM: Homo sapiens, SW13, 264 h, read-out: % inhibition rate SW-13
Summary of the method: as §2

[8] = system: NCI-H1299 cells; assay: Cancer cell proliferation inhibition (Cell Counting Kit-8), lung cancer cell line; format: cell-based; conditions: 1000 nM, cultured seven to 11 days; for inhibition at 1 µM: Homo sapiens, NCI-H1299, 264 h, read-out: % inhibition rate NCI-H129 9
Summary of the method: as §2

Chain of EZH2 (Q15910 whole entry, species assumed): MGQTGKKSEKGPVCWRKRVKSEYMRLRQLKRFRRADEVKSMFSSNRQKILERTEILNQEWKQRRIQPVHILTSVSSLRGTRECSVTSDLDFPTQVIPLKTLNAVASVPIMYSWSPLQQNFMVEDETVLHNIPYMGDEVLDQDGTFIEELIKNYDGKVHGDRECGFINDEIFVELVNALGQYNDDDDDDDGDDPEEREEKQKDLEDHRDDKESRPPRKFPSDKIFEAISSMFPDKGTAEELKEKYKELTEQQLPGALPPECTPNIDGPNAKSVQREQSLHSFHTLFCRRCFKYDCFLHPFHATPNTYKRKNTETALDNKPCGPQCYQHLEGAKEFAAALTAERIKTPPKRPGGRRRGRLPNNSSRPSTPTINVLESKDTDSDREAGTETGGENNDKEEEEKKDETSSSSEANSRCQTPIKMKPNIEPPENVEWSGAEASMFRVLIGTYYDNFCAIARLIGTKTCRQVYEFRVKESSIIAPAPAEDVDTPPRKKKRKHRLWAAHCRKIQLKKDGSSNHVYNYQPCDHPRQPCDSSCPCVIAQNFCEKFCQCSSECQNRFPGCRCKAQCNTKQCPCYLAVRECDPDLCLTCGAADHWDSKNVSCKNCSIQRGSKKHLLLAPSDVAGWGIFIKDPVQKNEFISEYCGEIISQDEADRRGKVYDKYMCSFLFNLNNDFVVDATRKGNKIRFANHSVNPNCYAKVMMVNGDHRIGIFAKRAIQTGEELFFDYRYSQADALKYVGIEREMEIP
Chain of EZH2 (O75530 whole entry partner, species assumed): as the sequence (O75530 whole entry partner, species assumed) above
Chain of EZH2 (Q15022 whole entry partner, species assumed): as the sequence (Q15022 whole entry partner, species assumed) above

| SMILES | inhibition at 0.005 µM ([1]; 5nM test substance) [%] | inhibition at 1 µM [2] [%] | inhibition at 1 µM [3] [%] | inhibition at 1 µM [4] [%] | inhibition at 0.005 µM ([5]; 5nM test substance) [%] | inhibition at 1 µM [6] [%] | inhibition at 1 µM [7] [%] | inhibition at 1 µM [8] [%] | Enzyme inhibition % EZH2 ([1]; 5nM test substance, 0.005 µM) [%] | % inhibition rate MIA-Paca2 [2] | % inhibition rate G401 [3] | % inhibition rate MKN -45 [4] | Enzyme inhibition % EZH1 ([5]; 5nM test substance, 0.005 µM) [%] | % inhibition rate LoVo [6] | % inhibition rate SW-13 [7] | % inhibition rate NCI-H129 9 [8] | inhibition at 0.01 µM [1] [%] | inhibition at 0.01 µM [5] [%] | % inhibition rate LoVo ([6]; 1 µM) |
| --- | --- | --- | --- | --- | --- | --- | --- | --- | --- | --- | --- | --- | --- | --- | --- | --- | --- | --- | --- |
| CSc1cc(C)[nH]c(=O)c1CNC(=O)c1cc(-c2c(C)noc2C)c2c(c1C)OC(C)([C@H]1CC[C@H](N(C)C)CC1)O2 (relative stereo) [Compound 13, 2-(trans-4-(dimethylamino)cyclohexyl)-7-(3,5-dimethylisoxazol-4-yl)-2,4-dimethyl-N-((6-methyl-4-(methylthio)-2-oxo-1,2-dihydropyridin-3-yl)methyl)benzo[d][1,3]dioxole-5-carboxamide] | 97.6 | ≤ 30 | 30 to 70 | ≤ 30 | 53.7 | 30 to 70 | ≤ 30 | ≤ 30 | – | – | – | – | – | – | – | – | – | – | – |
| CSc1cc(C)[nH]c(=O)c1CNC(=O)c1cc(-c2ccc(N3C[C@@H](C)O[C@@H](C)C3)nc2)c2c(c1C)OC(C)([C@H]1CC[C@H](N(C)CC(F)(F)F)CC1)O2 (single isomer, unassigned) [Compound 108] | – | – | – | – | – | – | – | – | 4.3 | + (+: ≤30%) | + (+: ≤30%) | + (+: ≤30%) | 20.4 | +++ (+++: ≥70%) | + (+: ≤30%) | + (+: ≤30%) | – | – | – |
| CSc1cc(C)[nH]c(=O)c1CNC(=O)c1cc(-c2ccc(N3C[C@@H](C)O[C@@H](C)C3)nc2)c2c(c1C)OC(C)(C1CCN(CCCC(F)(F)F)CC1)O2 (single isomer, unassigned) [Compound 57] | 96 | 30 to 70 | – | 30 to 70 | 58.9 | – | 30 to 70 | 30 to 70 | – | – | +++ (+++: ≥70%) | – | – | – | – | – | 99.4 | 76.2 | +++ (+++: ≥70%) |
| CCN(C)[C@H]1CC[C@H](C2(C)Oc3c(-c4ccc(N5C[C@@H](C)O[C@@H](C)C5)nc4)cc(C(=O)NCc4c(SC)cc(C)[nH]c4=O)c(C)c3O2)CC1 (stereo partly drawn) [Compound 111, 7-(6-((2S,6R)-2,6-dimethylmorpholino)pyridin-3-yl)-2-(trans-4-(ethyl(methyl)amino)cyclohexyl)-2,4-dimethyl-N-((6-methyl-4-(methylthio)-2-oxo-1,2-dihydropyridin-3-yl)methyl)benzo[d][1,3]dioxole-5-carboxamide] | 86.7 | ≤ 30 | ≥ 70 | ≤ 30 | 28.1 | ≥ 70 | 30 to 70 | ≤ 30 | – | – | – | – | – | – | – | – | 100 | 62.1 | – |
| COc1ccc(-c2cc(C(=O)NCc3c(SC)cc(C)[nH]c3=O)c(C)c3c2OC(C)(C2CCN(CC(F)(F)F)CC2)O3)cn1 (stereo not shown) [Compound 36, 7-(6-methoxypyridin-3-yl)-2,4-dimethyl-N-((6-methyl-4-(methylthio)-2-oxo-1,2-dihydropyridin-3-yl)methyl)-2-(1-(2,2,2-trifluoroethyl)piperidin-4-yl)benzo[d][1,3]dioxole-5-carboxamide] | 83.1 | ≤ 30 | ≥ 70 | ≤ 30 | 57.4 | ≥ 70 | ≤ 30 | ≤ 30 | – | – | – | – | – | – | – | – | – | – | – |
| CSc1cc(C)[nH]c(=O)c1CNC(=O)c1cc(-c2cnc(N3CCCCC3)nc2)c2c(c1C)OC(C)(C1CCN(CC(F)(F)F)CC1)O2 (stereo not shown) [Compound 39, 2,4-dimethyl-N-((6-methyl-4-(methylthio)-2-oxo-1,2-dihydropyridin-3-yl)methyl)-7-(2-(piperidin-1-yl)pyrimidin-5-yl)-2-(1-(2,2,2-trifluoroethyl)piperidin-4-yl)benzo[d][1,3]dioxole-5-carboxamide] | 62 | ≤ 30 | 30 to 70 | ≤ 30 | 20.5 | ≥ 70 | ≤ 30 | ≤ 30 | – | – | – | – | – | – | – | – | – | – | – |
| COCCN(C)[C@H]1CC[C@H](C2(C)Oc3c(-c4cnc(N5C[C@@H](C)O[C@@H](C)C5)nc4)cc(C(=O)NCc4c(SC)cc(C)[nH]c4=O)c(C)c3O2)CC1 (stereo partly drawn) [Compound 25, 7-(2-((2S,6R)-2,6-dimethylmorpholino)pyrimidin-5-yl)-2-(trans-4-((2-methoxyethyl)(methyl)amino)cyclohexyl)-2,4-dimethyl-N-((6-methyl-4-(methylthio)-2-oxo-1,2-dihydropyridin-3-yl)methyl)benzo[d][1,3]dioxole-5-carboxamide] | 97.6 | ≤ 30 | 30 to 70 | ≤ 30 | 82.4 | ≥ 70 | 30 to 70 | ≤ 30 | – | – | – | – | – | – | – | – | – | – | – |
| COCCN(C)[C@H]1CC[C@H](C2(C)Oc3c(-c4ccc(N5CCC(F)(F)CC5)nc4)cc(C(=O)NCc4c(SC)cc(C)[nH]c4=O)c(C)c3O2)CC1 (relative stereo) [Compound 27, 7-(6-(4,4-difluoropiperidin-1-yl)pyridin-3-yl)-2-(trans-4-((2-methoxyethyl)(methyl)amino)cyclohexyl)-2,4-dimethyl-N-((6-methyl-4-(methylthio)-2-oxo-1,2-dihydropyridin-3-yl)methyl)benzo[d][1,3]dioxole-5-carboxamide] | 95.8 | ≤ 30 | 30 to 70 | 30 to 70 | 80.2 | ≥ 70 | 30 to 70 | ≤ 30 | – | – | – | – | – | – | – | – | – | – | – |
| CSc1cc(C)[nH]c(=O)c1CNC(=O)c1cc(-c2ccc(N3CCOCC3)nc2)c2c(c1C)OC(C)(C1CCN(CC(F)F)CC1)O2 (single isomer, unassigned) [Compound 64, 2-(1-(2,2-difluoroethyl)piperidin-4-yl)-2,4-dimethyl-N-((6-methyl-4-(methylthio)-2-oxo-1,2-dihydropyridin-3-yl)methyl)-7-(6-morpholinopyridin-3-yl)benzo[d][1,3]dioxole-5-carboxamide] | 99.2 | ≤ 30 | – | 30 to 70 | 82.5 | – | 30 to 70 | ≤ 30 | – | – | +++ (+++: ≥70%) | – | – | – | – | – | 99.6 | 90.5 | +++ (+++: ≥70%) |
| CSc1cc(C)[nH]c(=O)c1CNC(=O)c1cc(-c2ccc(N3C[C@@H](C)O[C@@H](C)C3)nc2)c2c(c1C)OC(C)([C@H]1CC[C@H](N)CC1)O2 (stereo partly drawn) [Compound 100, 2-(trans-4-aminocyclohexyl)-7-(6-((2S,6R)-2,6-dimethylmorpholino)pyridin-3-yl)-2,4-dimethyl-N-((6-methyl-4-(methylthio)-2-oxo-1,2-dihydropyridin-3-yl)methyl)benzo[d][1,3]dioxole-5-carboxamide hydrochloride] | 96.3 | ≤ 30 | ≥ 70 | 30 to 70 | 30 | ≤ 30 | 30 to 70 | ≤ 30 | – | – | – | – | – | – | – | – | 100 | 68.1 | – |
| COc1ccc(F)cc1-c1cc(C(=O)NCc2c(SC)cc(C)[nH]c2=O)c(C)c2c1OC(C)(C1CCC(N(C)C)CC1)O2 (stereo not shown) [Compound 43, 2-(4-(dimethylamino)cyclohexyl)-7-(5-fluoro-2-methoxyphenyl)-2,4-dimethyl-N-((6-methyl-4-(methylthio)-2-oxo-1,2-dihydropyridin-3-yl)methyl)benzo[d][1,3]dioxole-5-carboxamide] | 94.6 | ≤ 30 | ≥ 70 | 30 to 70 | 65.6 | ≥ 70 | ≤ 30 | 30 to 70 | – | – | – | – | – | – | – | – | – | – | – |
| CSc1cc(C)[nH]c(=O)c1CNC(=O)c1cc(-c2ccc(N3C[C@@H](C)O[C@@H](C)C3)nc2)c2c(c1C)OC(C)([C@H]1CC[C@H](N(C)C3CCCCC3)CC1)O2 (stereo partly drawn) [Compound 114, 2-(trans-4-(cyclohexyl(methyl)amino)cyclohexyl)-7-(6-((2S,6R)-2,6-dimethylmorpholino)pyridin-3-yl)-2,4-dimethyl-N-((6-methyl-4-(methylthio)-2-oxo-1,2-dihydropyridin-3-yl)methyl)benzo[d][1,3]dioxole-5-carboxamide] | 45.8 | ≤ 30 | ≥ 70 | ≤ 30 | 28.6 | ≥ 70 | 30 to 70 | ≤ 30 | – | – | – | – | – | – | – | – | 91.7 | 38.2 | – |
